Assay [1] relates to Coccidioides immitis. Description: Reduction of fungal burden in Coccidioides immitis Silveira infected po dosed CD1 mouse brain, spinal cord, lung, kidney administered twice daily after 3 days of infection measured after 5 days relative to control. In kind it is functional, organism-based.
The test system of assay [2] is Coccidioides immitis. Description: Reduction of fungal burden in Coccidioides immitis Silveira infected CD1 mouse lung and kidney administered after 3 days of infection at 10 mg/kg, po bid after 5 days relative to control. Type of assay: functional, organism-based. Details: dose 10 mg/kg.
Assay [3] has as its system Coccidioides immitis. Description: Antifungal activity against Coccidioides immitis by broth macrodilution method. In kind it is functional. Particulars: for MIC50 / MIC90: Coccidioides immitis.
Assay [4] deals with Mus musculus. Description: Prolongation of survival in CD1 mouse infected with Coccidioides immitis Silveira administered after 3 days of infection at 10 mg/kg, po bid after 12 days relative to control. Type of assay: functional, organism-based. Details: dose 10 mg/kg.
Assay [5] deals with Mus musculus. Description: Prolongation of survival in CD1 mouse infected with Coccidioides immitis Silveira administered after 3 days of infection at 25 mg/kg, po bid after 12 days relative to control. Details: dose 25 mg/kg. In kind it is functional, organism-based.
Assay [6] deals with Mus musculus. Description: Prolongation of survival in CD1 mouse infected with Coccidioides immitis Silveira administered after 3 days of infection at 50 mg/kg, po bid after 12 days relative to control. Type of assay: functional, organism-based. More on the design: dose 50 mg/kg.
Assay [7] relates to Coccidioides immitis. Description: Effect on fungal burdens in Coccidioides immitis Silveira infected CD1 mouse brain administered after 3 days of infection at 50 mg/kg, po bid after 12 days. Type of assay: functional.
Assay [8] deals with Coccidioides immitis. Description: Effect on fungal burdens in Coccidioides immitis Silveira infected CD1 mouse spinal cord administered after 3 days of infection at 50 mg/kg, po bid after 12 days. In kind it is functional.
The subject of assay [9] is Coccidioides immitis. Description: Effect on fungal burdens in Coccidioides immitis Silveira infected CD1 mouse lung administered after 3 days of infection at 50 mg/kg, po bid after 12 days. Details: dose 50 mg/kg. Type of assay: functional, organism-based.
Assay [10] deals with Coccidioides immitis. Description: Effect on Coccidioides immitis Silveira infection in CD1 mouse brain, spinal cord and lungs administered after 3 days of infection at 50 mg/kg, po bid after 10 days. Type of assay: functional, organism-based. Details: dose 50 mg/kg.
The test system of assay [11] is Mus musculus. Description: Prolongation of survival in po dosed CD1 mouse infected with Coccidioides immitis Silveira administered after 3 days of infection after 12 days relative to control. Type of assay: functional, organism-based.

In brackets after ≈: the same amount, converted by molar mass. Activity calls are given as the source filed them. The calls are words filed in the database; no cut-off is given here.

Regarding `OC(Cn1cncn1)(Cn1cncn1)c1ccc(F)cc1F` [FLUCONAZOLE], the Activity entry in the assay on Coccidioides immitis [1] and in the assay with Mus musculus [11] was “Dose-dependent effect” each time. In addition, the result in the assay on Coccidioides immitis [2] was inactive. In the assay with Coccidioides immitis [3], this compound registered an MFC50 of 25 µg/mL (≈ 81.6 µM). In addition, the MFC90 in the assay on Coccidioides immitis [3] is over 100 µg/mL. Besides, in the assay on Coccidioides immitis [3], the MIC50 (usually an inhibitory concentration at the 50% level, which refers to growth in some studies and to a panel of isolates in others) was found to be 25 µg/mL (≈ 81.6 µM). For the same compound, the MIC90 (usually the lowest concentration that inhibits either 90% of growth or 90% of the strains tested, depending on the study) with Coccidioides immitis [3] is over 100 µg/mL. Besides, the outcome in the assay with Mus musculus [4], with Mus musculus [5], with Mus musculus [6], in the assay with Coccidioides immitis [7], with Coccidioides immitis [8] and in the assay with Coccidioides immitis [9] was Active. The result in the assay with Coccidioides immitis [10] was Active.

`CCC(C)n1ncn(-c2ccc(N3CCN(c4ccc(OCC5COC(Cn6cncn6)(c6ccc(Cl)cc6Cl)O5)cc4)CC3)cc2)c1=O` (configuration not stated) [ITRACONAZOLE]: the Activity result in the assay with Coccidioides immitis [1] and with Mus musculus [11] was “Dose-dependent effect” in each case. This compound also showed an MFC50 in the assay with Coccidioides immitis [3] of 1.56 µg/mL (≈ 2.21 µM). In the assay on Coccidioides immitis [3], the MFC90 came out at 6.25 µg/mL (≈ 8.86 µM). Moreover, the MIC50 against Coccidioides immitis [3] came out at 0.78 µg/mL (≈ 1.11 µM). The same compound registered an MIC90 in the assay with Coccidioides immitis [3] of 1.56 µg/mL (≈ 2.21 µM). The result in the assay with Mus musculus [4], with Mus musculus [5], in the assay on Mus musculus [6], with Coccidioides immitis [9] and in the assay on Coccidioides immitis [10] was Active. Further, the log10CFU/g in the assay with Coccidioides immitis [7] is on record as 0.75; in the assay on Coccidioides immitis [8], 1.73.

Source of the values: ChEMBL document CHEMBL1142072, “Comparison of itraconazole and fluconazole treatments in a murine model of coccidioidal meningitis” (2007).
